Test results: US20250109216A1, “COMPOSITIONS AND METHODS FOR CROSSLINKING FC RECEPTORS” (The University of North Carolina at Chapel Hill, priority 2016, published 2025)
Entries after “also recorded” stand apart in the source; their conditions may differ.

Legend:
Format in all cases: cell-based, mice
[1] = test system: MRL/lpr Mφs; test: Lysosome acidification after IgG-IC stimulation, ratiometric flow cytometry (relative phagosomal pH); settings: MRL/lpr Mφs/BMMFs stimulated with IgG-ICs; inhibitor added 2 hours prior and left on
Protocol: (§1) FIGS. 6A-6B. […] (6A). BMMφs from B6 and MRL/lpr mice were stimulated with IgG-ICs±TGX-221 (p110β), IC87114 (p110δ), or Torin1 (mTorC1/C2), and ratiometric flow cytometry was used to quantify the relative phagosomal pH. (6B). Cells were pre-treated with drugs (for 2 hr) and given IgG-ICs. IgG-ICs were removed after 2 hr. Cells remained on drug for the duration of the experiment. At 72 hrs, levels of surface bound IgG-ICs were analyzed by flow cytometry. All values are normalized to B6 untreated. n=3-7.
FIGS. 9A-9C. […] (9A). BMMφs (left panel) or splenic CD11b+ myeloid cells from B6 and MRL/lpr (right panel) were stimulated with IgG-ICs±SM-PEG (1, 2) (5 μg/mL) or control SM-PEG […] (5 μg/mL), and ratiometric flow cytometry was used to quantify the relative phagosomal pH. For internal control, cells were treated with concanamycin A (CMA) 2 hrs prior to IgG-ICs treatment (T0+CMA) to inhibit lysosomal pH change. 2-7 mice, >2 experiments. (9B). BMMφs (left panel) or splenic CD11b+ myeloid cells (right panel) were stimulated with SM-PEG (1, 2) or control SM-PEG (2, 1), or left unstimulated for 30 min or 60 min. At each time points, fixed cells were analyzed for surface bound nucleosomes. 2 mice, 2 experiments. (9C). BMMφs were stimulated with IgG-ICs±SM-PEG(1, 2) (5 μg/mL) for 1 hr, then pAKT (Ser/Thr) and pSHIP1 levels were assessed by flow cytometry. Phospho-proteins were normalized to isotype controls and the levels of total protein. 4 mice, 4 experiments.
The acidotropic dye LysoSensor™ Yellow/Blue can be used to quantify the pH or lysosomes using ratiometric imaging. […] For this adaptation, we loaded cells with an acidotropic dye and concurrently analyzed cells by microscopy (with pH standards) and flow cytometry. […]
Cells were incubated (37° C., 5% CO2) for 2 hours prior to the addition of 40 μL of IgG-ICs in R10 media (as above). […] At each time points, LysoSensor™ (2 mg/mL) was added and incubated for 15 min, then, analyzed by flow cytometry. […] Relative pH was quantified by ratioing the MFIs from the emission channels (450/20 nm, 585/42 nm) (normalized to concanamycin A control). […]

[2] = test system: MRL/lpr Mφs; test: Recycling of IgG-IC flow cytometry (surface bound IgG-ICs); settings: pre-treated with drugs 2 hr, surface IgG-ICs at 72 hrs
Protocol: as §1
Cells (0.25×10^6) were rested in R10 media for 1 hr at 37° C. prior to the addition of any reagents. IgG-ICs were added, incubated for given duration, and removed at each time points. […]
BMMφs were incubated (37° C., 5% CO2) with 40 μL Alexa Fluor® 488-labeled IgG-ICs in R10 media (as above). To quantify surface bound ICs at 0 hours, phagocytic uptake was impaired by culturing with IgG-ICs on ice for 2 hours. […] One sample was incubated with an anti-Alexa Fluor® 488 antibody (quenches Alexa Fluor® 488 fluorescence), while the other sample was left in FACS media for 30 min on ice. […] Surface bound IgG-ICs were calculated by subtracting the MFI of the quenched sample (intracellular IgG-ICs) from the MFI of the unquenched sample (total IgG-ICs). […]

[3] = test system: B6 MFs; test: Recycling of IgG-ICs in B6 MFs treated with concanamycin A
Protocol: BMMφs were incubated (37° C., 5% CO2) with 40 μL Alexa Fluor® 488-labeled IgG-ICs in R10 media (as above). To quantify surface bound ICs at 0 hours, phagocytic uptake was impaired by culturing with IgG-ICs on ice for 2 hours. This was sufficient to allow the ICs to bind to the surface of the cell but not be phagocytosed. For all other time points, cells were incubated (37° C., 5% CO2) for 2 hours, then media was replaced to remove all unbound ICs. At indicated time points, cells were blocked in 2.4G2 for 30 min on ice in FACS media, washed, and split into 2 samples. One sample was incubated with an anti-Alexa Fluor® 488 antibody (quenches Alexa Fluor® 488 fluorescence), while the other sample was left in FACS media for 30 min on ice. Both samples were washed and fixed with 2% paraformaldehyde and incubated at 4° C. for 15 min. Surface bound IgG-ICs were calculated by subtracting the MFI of the quenched sample (intracellular IgG-ICs) from the MFI of the unquenched sample (total IgG-ICs). Values were normalized to B6 0 hr.

[4] = test system: MRL/lpr BMMφ; test: mTOR localization by confocal imaging; settings: MRL/lpr BMMφs; Torin1 250 ng/mL for 2 hrs
Protocol: FIGS. 5A-5B. Localization of mTOR is defective in MRL/lpr BMMφ. (5A-5B). Unstimulated BMMφs cultured±Torin1 (250 ng/mL) for 2 hrs were examined for mTOR localization with CD11b by confocal imaging. Colocalization of mTOR to membrane (CD11b) is quantitated by mander's coefficient (5A). Total cellular mTOR levels were quantitated using ImageJ software (5B); 3 exp, 2-3 mice, 10-29 cells.
BMMφs were cultured with IgG-ICs in R10 media at 37° C. For measuring lipid rafts fluorescently labeled CTx was added to the culture 30 min prior to fixation. For the nuclear stain, hoechst was added 15 min prior to fixation. Mφs were fixed with 2% paraformaldehyde, then incubated at 4° C. for 15 min. Cells were blocked in 2.4G2 for 30 min at 4° C. in FACs media (PBS with 2% FBS, 0.02% NaN3), washed, and stained with primary and corresponding secondary antibodies in permeabilization buffer (PBS with 0.05% Saponin and 0.5% BSA) for 30 min at 4° C. Mφs were imaged in FACs media or resuspended in FluorSave™ and imaged. […] Data were analyzed using ImageJ. Colocalization was measured by calculating the Mander's coefficient (colocalized pixels/total fluorescent pixels) in all the cells imaged.

| SMILES | lysosome acidification [1] | recycling of IgG-ICs (surface bound IgG-ICs) [2] | recycling of IgG-ICs [3] | mTOR localization [4] |
| --- | --- | --- | --- | --- |
| Cc1cc(C(C)Nc2ccccc2)c2nc(N3CCOCC3)cc(=O)n2c1 (stereo not shown) [TGX-221] | restored lysosome acidification to levels comparable to B6; also recorded: restored lysosomal acidification | prevented the recycling of IgG-ICs | – | – |
| C/C=C/[C@H]1O[C@@](O)([C@@H](C)[C@H](O)[C@H](C)[C@H]2OC(=O)/C(OC)=C/C(C)=C/[C@@H](C)[C@@H](O)[C@@H](CC)[C@@H](O)[C@H](C)C/C(C)=C/C=C/[C@@H]2OC)C[C@@H](O[C@H]2C[C@@H](O)[C@H](OC(N)=O)[C@@H](C)O2)[C@@H]1C [concanamycin A] | – | – | promotes the recycling of IgG-ICs | – |
| CCC(=O)N1CCN(c2ccc(-n3c(=O)ccc4cnc5ccc(-c6cnc7ccccc7c6)cc5c43)cc2C(F)(F)F)CC1 [Torin1] | restored lysosome acidification to levels comparable to B6; also recorded: restored lysosomal acidification | – | – | restored mTOR to a cytosolic location |
| Cc1ccccc1-n1c(Cn2cnc3c(N)ncnc32)nc2cccc(C)c2c1=O [IC87114] | restored lysosome acidification to levels comparable to B6; also recorded: restored lysosomal acidification | prevented the recycling of IgG-ICs | – | – |
